Literature values in patent US20070042953A1, “Antiepileptogenic complex of albumin with docosahexaenoate” (priority 2005, published 2007).

Legend:
[1] = test system: patients with chronic epilepsy; conditions: nutritional supplementation, first 6 weeks
[2] = test system: rat brain cells or hippocampal slices

For CCC=CCC=CCC=CCC=CCC=CC/C=C\CCC(=O)[O-].[Na+] [DHA, cis-4,7,10,13,16,19-Docosahexaenoic acid, sodium salt], the seizure frequency [1] is given as “reduce seizure frequency in the first 6 weeks, but the effect was not sustained” and the “epileptic activity in vitro” value [2] is given as “attenuate epileptic activity”.
